According to ChEMBL document CHEMBL1121518, “Congeners of the beta conformer of dopamine derived from cis- and trans-octahydrobenzo[f]quinoline and trans-octahydrobenzo[g]quinoline” (1980):

Tests used:
[1] = biological target: T1, Alpha-1A adrenergic receptor (Homo sapiens) (UniProt P35348); assay: Inhibitory activity against adrenergic alpha-receptor transmission, its effect being blocked by phentolamine; details: Felis catus
T1 sequence (whole entry): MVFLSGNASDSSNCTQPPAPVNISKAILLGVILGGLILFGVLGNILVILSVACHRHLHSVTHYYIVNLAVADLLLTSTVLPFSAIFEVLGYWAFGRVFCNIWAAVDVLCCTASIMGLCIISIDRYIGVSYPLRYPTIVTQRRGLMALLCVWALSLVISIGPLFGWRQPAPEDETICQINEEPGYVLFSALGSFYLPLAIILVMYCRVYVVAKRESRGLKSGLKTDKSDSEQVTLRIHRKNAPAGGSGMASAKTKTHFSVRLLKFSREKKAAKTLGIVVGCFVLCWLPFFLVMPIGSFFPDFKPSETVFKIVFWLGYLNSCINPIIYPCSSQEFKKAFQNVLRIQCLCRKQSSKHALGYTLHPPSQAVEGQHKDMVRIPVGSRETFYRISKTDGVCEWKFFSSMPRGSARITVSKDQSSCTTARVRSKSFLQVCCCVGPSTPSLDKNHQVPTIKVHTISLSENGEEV

Felis catus = species on record: Felis catus; assay: Tested for inhibition of cardioaccelerator nerves of cat; assay type: functional; details: read-out: ID50 (the source's name)
Canis familiaris [2] = species on record: Canis familiaris; assay: Tested for mean blood pressure in dog after ID50 dose; assay type: functional, Canis lupus familiaris
Canis familiaris [3] = assay: Tested for mean blood pressure in dog before drug administration; assay type: functional, Canis lupus familiaris
Canis familiaris [4] = species on record: Canis familiaris; assay: Tested for mean heart rate in dog after ID50 dose; assay type: functional, Canis lupus familiaris
Canis familiaris [5] = assay: Tested for mean heart rate in dog before drug administration; assay type: functional, Canis lupus familiaris

Br.CN1CCCC2c3cc(O)c(O)cc3CCC21 (cis isomer)
Activity [1]: 2 mg/kg | ED50 (Felis catus): 0.31 µmol/kg | Activity (Canis familiaris [2]): 95.4 mmHg | Activity (Canis familiaris [3]): 125.8 mmHg | Activity (Canis familiaris [4]): 158.6 beats min-1 | Activity (Canis familiaris [5]): 174 beats min-1

Br.CCN1CCCC2c3cc(O)c(O)cc3CCC21 (stereo unspecified)
ED50 (Felis catus): 0.45 µmol/kg | Activity (Canis familiaris [2]): 89.8 mmHg | Activity (Canis familiaris [3]): 115 mmHg | Activity (Canis familiaris [4]): 162.8 beats min-1 | Activity (Canis familiaris [5]): 183 beats min-1

Br.CCCN1CCC[C@@H]2c3cc(O)c(O)cc3CC[C@H]21
ED50 (Felis catus): 0.0013 µmol/kg | Activity (Canis familiaris [2]): 73.6 mmHg | Activity (Canis familiaris [3]): 116.4 mmHg | Activity (Canis familiaris [4]): 156.9 beats min-1 | Activity (Canis familiaris [5]): 178 beats min-1

Br.CN1CCC[C@@H]2c3cc(O)c(O)cc3CC[C@H]21
ED50 (Felis catus): 0.0055 µmol/kg | Activity (Canis familiaris [2]): 95.6 mmHg | Activity (Canis familiaris [3]): 116.7 mmHg | Activity (Canis familiaris [4]): 160.9 beats min-1 | Activity (Canis familiaris [5]): 175.4 beats min-1

Br.CCN1CCC[C@@H]2c3cc(O)c(O)cc3CC[C@H]21
ED50 (Felis catus): 0.0009 µmol/kg | Activity (Canis familiaris [2]): 90.9 mmHg | Activity (Canis familiaris [3]): 115.4 mmHg | Activity (Canis familiaris [4]): 161.3 beats min-1 | Activity (Canis familiaris [5]): 176.9 beats min-1

Br.CCCN1CCCC2c3cc(O)c(O)cc3CCC21 (stereo unspecified)
ED50 (Felis catus): 0.26 µmol/kg | Activity (Canis familiaris [2]): 82.9 mmHg | Activity (Canis familiaris [3]): 114.9 mmHg | Activity (Canis familiaris [4]): 165 beats min-1 | Activity (Canis familiaris [5]): 175.7 beats min-1

CN1CCc2cccc3c2[C@H]1Cc1ccc(O)c(O)c1-3 [APOMORPHINE]
ED50 (Felis catus): 0.022 µmol/kg | Activity (Canis familiaris [2]): 92 mmHg | Activity (Canis familiaris [3]): 109.5 mmHg | Activity (Canis familiaris [4]): 128.9 beats min-1 | Activity (Canis familiaris [5]): 139.2 beats min-1
